ChEMBL document CHEMBL4364299, “Discovery of a Potent Kelch-Like ECH-Associated Protein 1-Nuclear Factor Erythroid 2-Related Factor 2 (Keap1-Nrf2) Protein-Protein Interaction Inhibitor with Natural Proline Structure as a Cytoprotective Agent against Acetaminophen-Induced Hepatotoxicity” (J Med Chem, 2019)
Calls of active or inactive are those of the source. The calls are words filed in the database; no cut-off is given here.

Assays:
[1] = molecular target: T1, Nuclear factor erythroid 2-related factor 2 (Homo sapiens) (UniProt Q16236); experiment: Activation of Nrf2 in human L02 cells assessed as increase in HO-1 mRNA expression measured after 12 hrs by trizol reagent based qRT-PCR analysis; type: cell-based
T1 sequence (whole entry): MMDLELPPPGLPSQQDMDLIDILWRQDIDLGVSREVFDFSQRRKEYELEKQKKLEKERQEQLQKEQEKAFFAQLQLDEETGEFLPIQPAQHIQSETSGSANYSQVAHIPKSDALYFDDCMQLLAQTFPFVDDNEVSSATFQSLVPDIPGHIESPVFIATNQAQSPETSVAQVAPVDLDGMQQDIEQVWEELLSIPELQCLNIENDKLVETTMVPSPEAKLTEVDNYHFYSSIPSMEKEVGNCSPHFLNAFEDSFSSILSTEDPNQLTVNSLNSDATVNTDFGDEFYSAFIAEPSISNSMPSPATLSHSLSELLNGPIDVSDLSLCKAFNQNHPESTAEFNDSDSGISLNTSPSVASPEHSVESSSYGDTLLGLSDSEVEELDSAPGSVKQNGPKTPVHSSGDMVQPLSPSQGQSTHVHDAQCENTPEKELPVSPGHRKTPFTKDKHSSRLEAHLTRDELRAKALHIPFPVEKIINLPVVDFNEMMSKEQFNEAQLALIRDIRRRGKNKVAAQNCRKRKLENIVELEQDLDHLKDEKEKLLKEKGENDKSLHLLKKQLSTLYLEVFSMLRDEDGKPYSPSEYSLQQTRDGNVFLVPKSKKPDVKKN

[2] = tested on: L02; experiment: Cytotoxicity against human L02 cells assessed as reduction in cell viability up to 100 uM measured after 48 hrs by MTT assay; type: cell-based; settings: l02, 48 h
[3] = molecular target: T1, Nuclear factor erythroid 2-related factor 2 (Homo sapiens); experiment: Activation of Nrf2 in human L02 cells assessed as increase in NQO-1 mRNA expression measured after 12 hrs by trizol reagent based qRT-PCR analysis; type: cell-based
[4] = molecular target: T1, Nuclear factor erythroid 2-related factor 2 (Homo sapiens); experiment: Activation of Nrf2 in human L02 cells assessed as increase in NQO-1 expression at 10 uM measured after 4 to 72 hrs hrs by Western blot analysis; type: cell-based
[5] = tested on: L02; experiment: Upregulation of NQO-1 mRNA expression in human L02 cells harboring Nrf2 siRNA at 10 uM measured after 10 hrs by trizol reagent based qRT-PCR analysis; type: functional, cell-based
[6] = tested on: L02; experiment: Upregulation of GCLM mRNA expression in human L02 cells harboring Nrf2 siRNA at 10 uM measured after 10 hrs by trizol reagent based qRT-PCR analysis; type: functional, cell-based
[7] = tested on: L02; experiment: Upregulation of GCLM expression in human L02 cells harboring Nrf2 siRNA at 10 uM measured after 10 hrs by Western blot analysis; type: functional, cell-based
[8] = molecular target: T1, Nuclear factor erythroid 2-related factor 2 (Homo sapiens); experiment: Activation of Nrf2 in human L02 cells harboring control siRNA assessed as increase in NEFL2L mRNA expression at 10 uM measured after 10 hrs by trizol reagent based qRT-PCR analysis; type: cell-based
[9] = molecular target: T1, Nuclear factor erythroid 2-related factor 2 (Homo sapiens); experiment: Activation of Nrf2 in human L02 cells harboring control siRNA assessed as increase in HO-1 mRNA expression at 10 uM measured after 10 hrs by trizol reagent based qRT-PCR analysis; type: cell-based
[10] = molecular target: T1, Nuclear factor erythroid 2-related factor 2 (Homo sapiens); experiment: Activation of Nrf2 in human L02 cells harboring control siRNA assessed as increase in NQO-1 mRNA expression at 10 uM measured after 10 hrs by trizol reagent based qRT-PCR analysis; type: cell-based
[11] = molecular target: T1, Nuclear factor erythroid 2-related factor 2 (Homo sapiens); experiment: Activation of Nrf2 in human L02 cells harboring control siRNA assessed as increase in GCLM mRNA expression at 10 uM measured after 10 hrs by trizol reagent based qRT-PCR analysis; type: cell-based
[12] = molecular target: T1, Nuclear factor erythroid 2-related factor 2 (Homo sapiens); experiment: Activation of Nrf2 in human L02 cells harboring control siRNA assessed as increase in NEFL2L expression at 10 uM measured after 10 hrs by Western blot analysis; type: cell-based
[13] = molecular target: T1, Nuclear factor erythroid 2-related factor 2 (Homo sapiens); experiment: Activation of Nrf2 in human L02 cells harboring control siRNA assessed as increase in GCLM expression at 10 uM measured after 10 hrs by Western blot analysis; type: cell-based
[14] = tested on: L02; experiment: Cytoprotective activity against APAP-induced oxidative stress in human L02 cells assessed as decrease in MDA activity at 5 to 10 uM preincubated for 12 hrs followed by APAP stimulation and measured after 24 hrs; type: functional, cell-based
[15] = tested on: L02; experiment: Cytoprotective activity against APAP-induced oxidative stress in human L02 cells assessed as decrease in ALP level at 5 to 10 uM preincubated for 12 hrs followed by APAP stimulation and measured after 24 hrs; type: functional, cell-based
[16] = tested on: Mus musculus; experiment: (§1) Protection against APAP-induced hepatotoxicity in C57BL/6 mouse assessed as decrease in Nrf2 expression in liver at 10 to 40 mg/kg, ip treated 2 hrs prior to 22 hrs starvation followed by APAP challenge and measured after 6 hrs by Dako/Mayer's hematoxylin staining-based immunohistochemical analysis; type: functional, organism-based
[17] = tested on: Mus musculus; experiment: Protection against APAP-induced hepatotoxicity in C57BL/6 mouse assessed as decrease in HO-1 expression in liver at 10 to 40 mg/kg, ip treated 2 hrs prior to 22 hrs starvation followed by APAP challenge and measured after 6 hrs by Dako/Mayer's hematoxylin staining-based immunohistochemical analysis; type: functional, organism-based
[18] = tested on: Mus musculus; experiment: Protection against APAP-induced hepatotoxicity in C57BL/6 mouse assessed as decrease in NQO1 expression in liver at 10 to 40 mg/kg, ip treated 2 hrs prior to 22 hrs starvation followed by APAP challenge and measured after 6 hrs by Dako/Mayer's hematoxylin staining-based immunohistochemical analysis; type: functional, organism-based
[19] = tested on: Mus musculus; experiment: Protection against APAP-induced hepatotoxicity in C57BL/6 mouse assessed as decrease in liver lymphocytes infiltration at 10 to 40 mg/kg, ip treated 2 hrs prior to 22 hrs starvation followed by APAP challenge and measured after 6 hrs by H and E staining-based light microscopic analysis; type: functional, organism-based
[20] = tested on: Mus musculus; experiment: Protection against APAP-induced hepatotoxicity in C57BL/6 mouse assessed as reduction in liver apoptosis at 10 to 40 mg/kg, ip treated 2 hrs prior to 22 hrs starvation followed by APAP challenge and measured after 6 hrs by TUNEL assay; type: functional, organism-based
[21] = tested on: Mus musculus; experiment: as §1, with “alpha-SMA” for “Nrf2”; type: functional, organism-based
[22] = tested on: Mus musculus; experiment: Protection against APAP-induced hepatotoxicity in C57BL/6 mouse assessed as decrease in ALT level at 10 mg/kg, ip treated 2 hrs prior to 22 hrs starvation followed by APAP challenge and measured after 6 hrs; type: functional, organism-based
[23] = tested on: Mus musculus; experiment: Protection against APAP-induced hepatotoxicity in C57BL/6 mouse assessed as decrease in IL6 production at 10 mg/kg, ip treated 2 hrs prior to 22 hrs starvation followed by APAP challenge and measured after 6 hrs; type: functional, organism-based
[24] = tested on: L02; settings: Homo sapiens, 5 to 10 uM
Description: Cytoprotective activity against APAP-induced hepatotoxicity in human L02 cells assessed as inhibition of IL1beta production at 5 to 10 uM preincubated for 12 hrs followed by APAP stimulation and measured after 24 hrs by ELISA

[25] = tested on: L02; settings: Homo sapiens, 5 to 10 uM; remark: listed apart in the source
Description: Cytoprotective activity against APAP-induced hepatotoxicity in human L02 cells assessed as inhibition of TNFalpha production at 5 to 10 uM preincubated for 12 hrs followed by APAP stimulation and measured after 24 hrs by ELISA

[26] = tested on: L02; experiment: cells; settings: Homo sapiens, L02, read-out: Activity
Description: Cytoprotective activity against APAP-induced apoptosis in human L02 cells assessed as viable cells at 10 uM preincubated for 12 hrs followed by APAP addition and measured after 12 hrs by FITC-Annexin V/propidium iodide staining based flow cytometry (Rvb = 50.6%)

Structure (SMILES): COc1ccc(S(=O)(=O)N(CC(=O)O)c2ccc(N3CCC[C@H]3C(=O)O)c3ccccc23)cc1
- Activity [1]: Dose-dependent effect
- Activity [2]: Non-Toxic
- Activity [3]: Dose-dependent effect
- Activity [4]: Active
- Activity [5]: inactive
- Activity [6]: inactive
- Activity [7]: inactive
- Activity [8]: Active
- Activity [9]: Active
- Activity [10]: Active
- Activity [11]: Active
- Activity [12]: Active
- Activity [13]: Active
- Activity [14]: Active
- Activity [15]: Active
- Activity [16]: Active
- Activity [17]: Active
- Activity [18]: Active
- Activity [19]: Active
- Activity [20]: Active
- Activity [21]: Active
- Activity [22]: Active
- Activity [23]: Active
- inhibition [24]: Active
- inhibition [25]: Active
- viability at 10 µM [26]: 76%
